Earlier results, collected in PMC8344243, “Design, synthesis, docking, ADMET studies, and anticancer evaluation of new 3-methylquinoxaline derivatives as VEGFR-2 inhibitors and apoptosis inducers” (Journal of Enzyme Inhibition and Medicinal Chemistry, 2021).

Assays:
Design in all cases: method as in PMID 33721808, PMID 34023640
HepG2 = conditions: lead compounds of previous work ref 63, 64, read-out: Cytotoxicity on cancer cells IC50, HepG2; cited from earlier work
MCF-7 = conditions: lead compounds of previous work ref 63, 64, read-out: Cytotoxicity on cancer cells IC50, MCF-7; cited from earlier work
human VEGFR-2 = target: T1, human VEGFR-2 (Homo sapiens, UniProt P35968); conditions: lead compounds of previous work ref 63, 64; cited from earlier work
T1 construct: endogenous in cells; host or cells: HepG2
T1 sequence (P35968 20-1356): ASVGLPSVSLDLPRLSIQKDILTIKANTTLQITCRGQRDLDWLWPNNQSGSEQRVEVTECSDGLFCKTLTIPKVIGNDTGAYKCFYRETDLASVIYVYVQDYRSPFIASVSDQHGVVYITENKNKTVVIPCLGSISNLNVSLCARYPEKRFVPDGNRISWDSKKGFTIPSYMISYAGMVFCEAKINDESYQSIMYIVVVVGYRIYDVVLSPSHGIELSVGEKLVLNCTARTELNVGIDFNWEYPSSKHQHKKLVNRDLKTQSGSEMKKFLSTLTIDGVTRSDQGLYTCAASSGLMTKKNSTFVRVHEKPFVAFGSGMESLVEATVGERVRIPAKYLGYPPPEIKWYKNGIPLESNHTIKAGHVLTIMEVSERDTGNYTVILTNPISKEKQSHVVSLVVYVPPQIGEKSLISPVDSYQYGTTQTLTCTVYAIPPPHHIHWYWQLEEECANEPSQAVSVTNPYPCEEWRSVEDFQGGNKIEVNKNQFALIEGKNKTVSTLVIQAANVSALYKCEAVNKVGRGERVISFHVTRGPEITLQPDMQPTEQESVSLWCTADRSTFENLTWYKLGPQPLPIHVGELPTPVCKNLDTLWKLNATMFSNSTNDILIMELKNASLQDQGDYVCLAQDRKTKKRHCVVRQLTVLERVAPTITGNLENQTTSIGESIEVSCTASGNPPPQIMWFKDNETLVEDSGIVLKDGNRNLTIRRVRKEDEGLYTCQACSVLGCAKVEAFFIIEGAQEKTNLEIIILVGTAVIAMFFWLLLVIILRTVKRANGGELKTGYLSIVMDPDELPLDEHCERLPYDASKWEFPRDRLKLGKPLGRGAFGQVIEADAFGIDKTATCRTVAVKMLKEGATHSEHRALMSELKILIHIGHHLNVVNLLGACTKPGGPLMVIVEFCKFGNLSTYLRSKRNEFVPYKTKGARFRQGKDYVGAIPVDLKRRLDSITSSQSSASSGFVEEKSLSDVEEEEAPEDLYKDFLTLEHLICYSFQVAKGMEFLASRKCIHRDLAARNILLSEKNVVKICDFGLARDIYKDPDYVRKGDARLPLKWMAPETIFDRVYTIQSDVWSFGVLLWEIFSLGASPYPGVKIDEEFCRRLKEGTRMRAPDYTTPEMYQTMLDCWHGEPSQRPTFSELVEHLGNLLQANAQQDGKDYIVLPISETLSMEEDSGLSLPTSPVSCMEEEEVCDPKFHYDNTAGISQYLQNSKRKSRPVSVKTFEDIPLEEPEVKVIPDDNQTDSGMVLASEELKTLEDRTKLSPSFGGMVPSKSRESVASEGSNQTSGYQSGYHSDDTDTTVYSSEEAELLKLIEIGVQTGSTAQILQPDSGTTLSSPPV

| Compound | IC50 (HepG2) [µM] | IC50 (MCF-7) [µM] | IC50 (human VEGFR-2) [µM] |
| --- | --- | --- | --- |
| O=C(Cn1c(=O)c2nncn2c2ccccc21)Nc1ccc(C(=O)Nc2ccc(Cl)cc2)cc1 [Compound 7] | 4.1 | 7.2 | – |
| COc1ccc(NC(=O)c2ccc(NC(=O)CSc3nnc4c5nncn5c5ccccc5n34)cc2)cc1 [Compound 8] | 3.3 | 4.4 | 0.0032 |
